Assay [1] has as its system TH17 cells. The assay is described as follows: Chemotaxis chamber assay, TH17 cells. It counts as cell-based. How it is done:
(§1) TH17 or TH1 cells alone or together with different concentrations of LTB4 inhibitor, U75-302, were added to the upper wells of chemotaxis chambers with 10^−8M of LTB4 in the lower wells. Cells were kept at 37° C. in 10% CO2 for 2 hr. Cells from the lower chamber were then stained with anti-CD4 antibody and stimulated for 4 hr with PMA/ionomycin in the presence of Golgi Stop. Cells were permeabilized and stained intracellularly for IL-17 or IFN-γ. The chemotactic index was calculated by dividing the number of CD4^+ IL-17^+ (for TH17 cells) or CD4^+ IFN-γ+ (for TH1 cells) migrated cells in LTB4-containing wells by the number of CD4^+ IL-17^+ (for TH17 cells) or CD4^+ IFN-γ+ (for Th1 cells) cells that migrated spontaneously to media alone.

In assay [2] the test system is TH1 cells. The assay is described as follows: Chemotaxis chamber assay, TH1 cells. Particulars: 10^−8M of LTB4 in the lower wells, 2 hr. Format: cell-based. As to the method:
as §1

For assay [3], the target named is BLT1 (Homo sapiens, UniProt Q15722). Particulars: Richards et al. 1989; cited from earlier work.
Assay [4] concerns human naïve CD4+ T cells. Description: Differentiation assay: naïve CD4+ T cells stimulated with anti-CD3/anti-CD28 plus cytokines for seven days; ELISA and intracytoplasmic staining. Format: cell-based. The following applies: for IFN-β secretion from naïve T cells / IL-17A secretion from naïve CD4+ T cells: ELISA; for IL-17A secretion from naïve CD4+ T cells: serum-free medium. An excerpt:
(§2) Error bars represent the standard deviation among three independent experiments using T cells from three unrelated subjects.
(§3) PBMCs were obtained from the peripheral blood of healthy subjects or from cord blood (AllCells) in compliance with institutional IRB protocols. CD4+ T cells were subsequently isolated by negative selection using magnetic beads (Miltenyi Biotech Inc., Auburn, Calif.). Naïve (CD25^− CD62L^+ CD45RA^hi) and central memory (CD25^− CD62L^+ CD45RA^−) CD4^+ T cells were obtained by staining with the following antibodies: CD62L-FITC, CD4-PerCP, CD45RA-PE-Cy7, CD25-APC-Cy7 (BD Pharmingen, San Diego, Calif.) and were sorted on a FACS Aria (BD Biosciences, Palo Alto, Calif.).
(§4) Naïve or central memory CD4^+ T cells were stimulated with plate-bound anti-CD3 and soluble CD28 monoclonal antibodies (1 μg/ml, each) in serum-free X-VIVO15 medium (Biowhittaker Inc., Walkersville, Md.) and cytokines (IL-6, 25 ng/ml; TGF-β, 5 ng/ml; IL-1β, 12.5 ng/ml; IL-21, 25 ng/ml; IL-23, 25 ng/ml) for a period of seven days, at which point supernatants were collected and tested by ELISA for IFN-β (BD Biosciences) or IL-17A (eBioscience, San Diego, Calif.) using paired antibodies. Intracytoplasmic staining was performed using standard methodologies and anti-IL-17-APC (R&D Systems, Minneapolis, Minn.) and anti-IFN-β-PE (BD Biosciences) antibodies.

Assay [5] deals with human central memory CD4+ T cells. The assay is described as follows: Differentiation assay: central memory CD4+ T cells (TCM) stimulated with anti-CD3/anti-CD28 plus cytokines for seven days; ELISA. Format: cell-based.
Excerpt: as §2, §3, §4
For orientation: ELISA stands for enzyme-linked immunosorbent assay.

Assay [6] relates to naïve human CD4+ T cells. The assay is described as follows: Quantitative RT-PCR of stimulated naïve CD4+ T cells from peripheral blood. Format: cell-based. The following applies: for IL-23 receptor up-regulation: stimulated naïve CD4+ T cells; for IL-22 mRNA: absence of exogenous IL-23. As to the method:
The mean fold-induction (relative to T cells stimulated in the absence of exogenous cytokines) and standard error among three independent experiments using T cells from three unrelated subjects are represented.
as §4
All primers and probes were obtained from Applied Biosystems (Foster City, Calif.), and used according to standard methodologies.

For assay [7], the system named is naïve cord blood T cells. The assay is described as follows: Quantitative RT-PCR of stimulated naïve CD4+ T cells from cord blood. It counts as cell-based, human. Particulars: seven days. As to the method: Sorted T cells were stimulated for seven days in the presence of the indicated cytokines, at which point RNA was collected and levels of IL-17A and RORC2 were measured by quantitative RT-PCR. Mean expression and standard error are reported based on three independent experiments using cord blood from three distinct donors.
as §3
Naïve or central memory CD4^+ T cells were stimulated with plate-bound anti-CD3 and soluble CD28 monoclonal antibodies (1 μg/ml, each) in serum-free X-VIVO15 medium (Biowhittaker Inc., Walkersville, Md.) and cytokines (IL-6, 25 ng/ml; TGF-β, 5 ng/ml; IL-1β, 12.5 ng/ml; IL-21, 25 ng/ml; IL-23, 25 ng/ml) for a period of seven days, at which point supernatants were collected and tested by ELISA for IFN-β (BD Biosciences) or IL-17A (eBioscience, San Diego, Calif.) using paired antibodies. […]

Chain of BLT1 (Q15722 whole entry, species assumed): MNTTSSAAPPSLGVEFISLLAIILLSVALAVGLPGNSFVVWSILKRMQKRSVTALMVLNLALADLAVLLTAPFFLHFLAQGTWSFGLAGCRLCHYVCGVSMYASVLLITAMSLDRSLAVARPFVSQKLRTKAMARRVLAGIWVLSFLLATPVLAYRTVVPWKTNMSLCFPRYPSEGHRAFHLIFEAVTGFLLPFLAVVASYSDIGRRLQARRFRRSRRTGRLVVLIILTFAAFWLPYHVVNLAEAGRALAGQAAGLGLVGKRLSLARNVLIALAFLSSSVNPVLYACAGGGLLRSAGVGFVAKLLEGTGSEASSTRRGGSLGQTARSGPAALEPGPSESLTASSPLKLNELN

For `CCCCC/C=C\C[C@@H](O)/C=C/C=C/C=C\[C@@H](O)CCCC(=O)O` [LTB4, Leukotriene B4], in assay [1] (10^−8M of LTB4 in the lower wells, 2 hr), the “Migration (chemotaxis) of TH17 cells” value is reported as “induced the selective migration”. For the same molecule, the “Migration (chemotaxis) of TH1 cells” value in assay [2] is “not”.
Consider `CCCCC/C=C\C[C@@H](O)/C=C/c1cccc(C[C@@H](O)CCCCO)n1` [U-75302, 6-(6-(3R-hydroxy-1E,5Z-undecadien-1-yl)-2-pyridinyl)-1,5S-hexandiol], for which the “Block of LTB4-induced migration of Th17 cells” value in assay [1] (different doses of antagonist in the upper wells) was “blocked in a dose dependant manner”. For the same molecule, in assay [3], the “Binding to BLT1” value is on record as “specifically binds BLT1”.
For IL-1β: cytokine, 12.5 ng/ml, in assay [4], the “IFN-β secretion from naïve T cells” value was “induced significant amounts of IFN-β secretion” and the “IL-17A secretion from naïve CD4+ T cells” value was “failed, however, to induce IL-17A secretion”. Further, the “IL-17A secretion from TCM” value in assay [5] is recorded as “induced the greatest amount of IL-17A secretion”. The “IL-21 mRNA” value in assay [6] (naïve CD4+ T cells) was “induced even greater amounts of IL-21 mRNA”. For the same molecule, the IL-23 receptor up-regulation entry in assay [6] was “induced IL-23 receptor up-regulation”.
IL-6: cytokine, 25 ng/ml: in assay [4], the “IFN-β secretion from naïve T cells” value is “induced significant amounts of IFN-β secretion”. Also, in assay [5], the “IL-17A secretion from TCM” value is “little effect”. In addition, the “Inhibition of the FoxP3 induction by TGF-β” value in assay [6] (cytokine added with TGF-β) is recorded as “inhibited”. Besides, in assay [6], the IL-23 receptor up-regulation entry is on record as “induced IL-23 receptor up-regulation”.
Turning to IL-21: cytokine, 25 ng/ml, in assay [4], the “TH17 differentiation from naïve CD4+ T cells” value is “does not induce human TH17 differentiation”, the “IFN-β secretion from naïve T cells” value is “induced significant amounts of IFN-β secretion” and the “IL-17A secretion from naïve CD4+ T cells” value was “unable to synergize with endogenous levels of TGF-β to promote IL-17 secretion”. In assay [6] (naïve CD4+ T cells), the “IL-21 mRNA” value is “significantly up-regulated IL-21” and the “IL-22 mRNA” value is reported as “induced IL-22 mRNA levels”. For the same molecule, in assay [6], the IL-23 receptor up-regulation entry is reported as “induced IL-23 receptor up-regulation”. Further, in assay [7], the “RORC2 mRNA” value is recorded as “modestly induced RORC2”.
Consider “TGF-β: cytokine, 5 ng/ml; doses from 1 ng/ml to 100 ng/ml examined”, for which the “TH17 differentiation from naïve CD4+ T cells” value in assay [4] is reported as “all differentiation/proliferation was suppressed”. Further, in assay [6] (naïve CD4+ T cells), the “IL-21 mRNA” value was “suppressed the expression of IL-21 and IL-22 mRNA induced by IL-21”; the “IL-22 mRNA” value was “suppressed the expression of IL-21 and IL-22 mRNA induced by IL-21”. In assay [6] (naïve CD4+ T cells, seven days), the FoxP3 expression result is listed as “induced” and the “T-bet mRNA expression” value is “suppresses the induction of T-bet by IL-21”. Moreover, in assay [6], the IL-23 receptor up-regulation entry is “not”.

B1: IL-23: cytokine, 25 ng/ml (protein, UniProt Q9NPF7 20-189; P29460 23-328, looked up)
Interleukin-23 subunit alpha: RAVPGGSSPAWTQCQQLSQKLCTLAWSAHPLVGHMDLREEGDEETTNDVPHIQCGDGCDPQGLRDNSQFCLQRIHQGLIFYEKLLGSDIFTGEPSLLPDSPVGQLHASLLGLSQLLQPEGHHWETQQIPSLSPSQPWQRLLLRFKILRSLQAFVAVAARVFAHGAATLSP
Interleukin-12 subunit beta: IWELKKDVYVVELDWYPDAPGEMVVLTCDTPEEDGITWTLDQSSEVLGSGKTLTIQVKEFGDAGQYTCHKGGEVLSHSLLLLHKKEDGIWSTDILKDQKEPKNKTFLRCEAKNYSGRFTCWWLTTISTDLTFSVKSSRGSSDPQGVTCGAATLSAERVRGDNKEYEYSVECQEDSACPAAEESLPIEVMVDAVHKLKYENYTSSFFIRDIIKPDPPKNLQLKPLKNSRQVEVSWEYPDTWSTPHSYFSLTFCVQVQGKSKREKKDRVFTDKTSATVICRKNASISVRAQDRYYSSSWSEWASVPCS
For the molecule B1, the “IL-17A secretion from TCM” value in assay [5] is “modestly enhance IL-17A secretion”.

Source of the values: patent US9732320B2, “Selective differentiation, identification, and modulation of human TH17 cells” (THE BRIGHAM AND WOMEN'S HOSPITAL, INC., priority 2008, dated 2017).
